According to patent publication US10703733B2, “MCL-1 inhibitors” (Gilead Sciences, Inc., priority 2018, dated 2020):
Like-named read-outs stand apart in the source and are kept apart here.

Legend:
[1] = biological target: MCL-1/Bim interaction (recombinant human MCL-1 protein, residues 171-327; biotinylated human Bim peptide, residues 51-76) (Homo sapiens (Human), UniProt Q07820); assay: MCL-1/Bim Binding AlphaLISA Assay; settings: 0.0625 nM 6xHis-Mcl-1 (171-327), 0.0625 nM biotinylated-Bim peptide
Chain of MCL-1/Bim interaction (recombinant human MCL-1 protein, residues 171-327; biotinylated human Bim peptide, residues 51-76) (Q07820 171-327): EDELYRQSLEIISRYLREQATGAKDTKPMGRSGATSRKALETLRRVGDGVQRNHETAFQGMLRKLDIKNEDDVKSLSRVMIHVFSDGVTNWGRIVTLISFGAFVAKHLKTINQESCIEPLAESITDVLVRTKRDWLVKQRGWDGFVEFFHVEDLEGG
Outline: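 Protein 0.0625 nM + cpd, 1 h; add biotin-Bim 0.0625 nM, 2 h; acceptor beads 1 h; donor beads 1 h; AlphaScreen read. Buffer 20 mM Hepes pH 7.5, 150 mM NaCl, 1 mM DTT.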

[2] = system: SKBR3 cells; assay: SKBR3 Cell Viability Assay (CellTiter Glo); format: cell-based; settings: CellTiter Glo luminescence, read-out: MCL-1 CV SKBR3 EC50
Outline: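 Viability read as CellTiter Glo luminescence after 72 h of compound exposure at 37° C./5% CO2, using 6,000 SKBR3 cells per well in McCoy 5A with 10% FBS. Percent inhibition scaled between DMSO wells and 10 μM puromycin wells.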

Row | Structure (SMILES) | IC50 [1] [nM] | EC50 ([2]; Homo sapiens, SK-BR-3, 72 h) [nM] | EC50 ([2]; 72 hours) [nM] | EC50 ([2]; Homo sapiens, SK-BR-3, 72 hours) [nM]
1 | COCC1(NC(=O)N[S@@]2(=O)=NC(=O)c3ccc4c(c3)N(C[C@@H]3CC[C@H]3[C@@H](OC)/C=C/C[C@H](C)C2)C[C@@]2(CCCc3cc(Cl)ccc32)CO4)CC1 [Example 131] | 0.046 | 162 |  | 
2 | CO[C@H]1/C=C/C[C@H](C)C[S@@](=O)(NC(=O)N[C@@H]2CC[C@H]2OC)=NC(=O)c2ccc3c(c2)N(C[C@@H]2CC[C@H]21)C[C@@]1(CCCc2cc(Cl)ccc21)CO3 [Example 179] | 0.102 | 82.5 |  | 
3 | CO[C@H]1/C=C/C[C@H](C)C[S@@](=O)(NC(=O)N[C@H]2C[C@H](COC(=O)N(C)C)C2)=NC(=O)c2ccc3c(c2)N(C[C@@H]2CC[C@H]21)C[C@@]1(CCCc2cc(Cl)ccc21)CO3 [Example 335] | 0.235 | 66.2 |  | 
4 | CO[C@H]1/C=C/C[C@H](C)C[S@@](=O)(NC(=O)N2CC(CO)(OC)C2)=NC(=O)c2ccc3c(c2)N(C[C@@H]2CC[C@H]21)C[C@@]1(CCCc2cc(Cl)ccc21)CO3 [Example 267] | 0.03 | 184 |  | 
5 | COc1nn(C)cc1C(=O)N[S@@]1(=O)=NC(=O)c2ccc3c(c2)N(C[C@@H]2CC[C@H]2[C@@H](OC)CC[C@H](OC)[C@H](C)C1)C[C@@]1(CCCc2cc(Cl)ccc21)CO3 [Example 299] | 0.039 | 59.7 |  | 
6 | COc1nn(C)cc1C(=O)N[S@@]1(=O)=NC(=O)c2ccc3c(c2)N(C[C@@H]2CC[C@H]2[C@@H](OCCN2CCOCC2)/C=C/C[C@H](C)C1)C[C@@]1(CCCc2cc(Cl)ccc21)CO3 [Example 366] | 0.086 | 53.1 |  | 
7 | CO[C@H]1/C=C/C[C@H](C)C[S@@](=O)(NC(=O)N[C@@H]2CC2(F)F)=NC(=O)c2ccc3c(c2)N(C[C@@H]2CC[C@H]21)C[C@@]1(CCCc2cc(Cl)ccc21)CO3 [Example 440] | 0.051 | 284 |  | 
8 | CO[C@H]1/C=C/C[C@H](C)C[S@@](=O)(NC(=O)C2Cc3cccnc3C2)=NC(=O)c2ccc3c(c2)N(C[C@@H]2CC[C@H]21)C[C@@]1(CCCc2cc(Cl)ccc21)CO3 (some centres unmarked) [Example 412] | 0.072 | 179 |  | 
9 | CO[C@H]1/C=C/C[C@H](C)C[S@@](=O)(NC(=O)N2C[C@@H](OC)[C@@H]2C)=NC(=O)c2ccc3c(c2)N(C[C@@H]2CC[C@H]21)C[C@@]1(CCCc2cc(Cl)ccc21)CO3 [Example 253] | 0.037 | 39.2 |  | 
10 | COc1nn(C)cc1C(=O)N[S@@]1(=O)=NC(=O)c2ccc3c(c2)N(C[C@@H]2CC[C@H]2[C@@H](OC(=O)OC(C)C)/C=C/C[C@H](C)C1)C[C@@]1(CCCc2cc(Cl)ccc21)CO3 [Example 384] | 0.34 | 154 |  | 
11 | CO[C@H]1/C=C/C[C@H](C)C[S@@](=O)(NC(=O)c2cn(C)nc2N)=NC(=O)c2ccc3c(c2)N(C[C@@H]2CC[C@H]21)C[C@@]1(CCCc2cc(Cl)ccc21)CO3 [Example 173] | 0.087 | 67.9 |  | 
12 | CO[C@H]1/C=C/C[C@H](C)C[S@@](=O)(NC(=O)N[C@H]2C[C@H](F)C2)=NC(=O)c2ccc3c(c2)N(C[C@@H]2CC[C@H]21)C[C@@]1(CCCc2cc(Cl)ccc21)CO3 [Example 357] | 0.113 | 206 |  | 
13 | CO[C@H]1/C=C/C[C@H](C)C[S@@](=O)(NC(=O)c2cc3n(c2)CC=C3)=NC(=O)c2ccc3c(c2)N(C[C@@H]2CC[C@H]21)C[C@@]1(CCCc2cc(Cl)ccc21)CO3 [Example 135] | 0.213 | 132 |  | 
14 | CO[C@H]1/C=C/C[C@H](C)C[S@@](=O)(NC(=O)N2CC(N3CCN4CCOC[C@@H]4C3)C2)=NC(=O)c2ccc3c(c2)N(C[C@@H]2CC[C@H]21)C[C@@]1(CCCc2cc(Cl)ccc21)CO3 [Example 297] | 0.033 |  |  | 69
15 | COc1nn(C)cc1C(=O)N[S@@]1(=O)=NC(=O)c2ccc3c(c2)N(C[C@@H]2CC[C@H]2[C@@H](OC(=O)CCN2CCOCC2)/C=C/C[C@H](C)C1)C[C@@]1(CCCc2cc(Cl)ccc21)CO3 [Example 300] | 0.026 | 26.8 |  | 
16 | COc1nn(C)cc1C(=O)N[S@@]1(=O)=NC(=O)c2ccc3c(c2)N(C[C@@H]2CC[C@H]2[C@@H](OC(C)=O)/C=C/C[C@H](C)[C@H]1C)C[C@@]1(CCCc2cc(Cl)ccc21)CO3 [Example 249] | 0.14 | 222 |  | 
17 | CCC(=O)N[S@@]1(=O)=NC(=O)c2ccc3c(c2)N(C[C@@H]2CC[C@H]2[C@@H](OCCN2CCN(C)CC2)/C=C/CCC1)C[C@@]1(CCCc2cc(Cl)ccc21)CO3 [Example 68] | 46.9 | 6300 |  | 
18 | COc1nn(C)cc1C(=O)N[S@@]1(=O)=NC(=O)c2ccc3c(c2)N(C[C@@H]2CC[C@H]2[C@@H](OC(=O)CC(C)C)/C=C/C[C@H](C)C1)C[C@@]1(CCCc2cc(Cl)ccc21)CO3 [Example 381] | 0.769 | 534 |  | 
19 | CCC(=O)N[S@]1(=O)=NC(=O)c2ccc3c(c2)N(C[C@@H]2CC[C@H]2[C@@H](OC)CCCCC1)C[C@@]1(CCCc2cc(Cl)ccc21)CO3 [Example 17] | 11.3 |  | 10000 | 

Further molecules by falling IC50 [1], results first:

Row | IC50 [1] [nM] | EC50 ([2]; Homo sapiens, SK-BR-3, 72 h) [nM] | Structure (SMILES) | EC50 ([2]; 72 hours) [nM] | EC50 ([2]; Homo sapiens, SK-BR-3, 72 hours) [nM]
20 | 0.4 | 604 | CO[C@H]1/C=C/CCC[S@@](=O)(NC(=O)COc2ccccc2)=NC(=O)c2ccc3c(c2)N(C[C@@H]2CC[C@H]21)C[C@@]1(CCCc2cc(Cl)ccc21)CO3 [Example 96] |  | 
21 | 0.132 | 161 | CO[C@H]1/C=C/C[C@H](C)C[S@@](=O)(NC(=O)[C@]23COCC2C3)=NC(=O)c2ccc3c(c2)N(C[C@@H]2CC[C@H]21)C[C@@]1(CCCc2cc(Cl)ccc21)CO3 (some centres unmarked) [Example 447] |  | 
22 | 0.129 | 21.3 | COCc1cc(C(=O)N[S@@]2(=O)=NC(=O)c3ccc4c(c3)N(C[C@@H]3CC[C@H]3[C@@H](OC)/C=C/C[C@H](C)C2)C[C@@]2(CCCc3cc(Cl)ccc32)CO4)cn1C [Example 304] |  | 
23 | 0.117 | 58.2 | CC[C@@H]1CC1NC(=O)N[S@@]1(=O)=NC(=O)c2ccc3c(c2)N(C[C@@H]2CC[C@H]2[C@@H](OC)/C=C/C[C@H](C)C1)C[C@@]1(CCCc2cc(Cl)ccc21)CO3 (some centres unmarked) [Example 199] |  | 
24 | 0.103 | 184 | CO[C@H]1/C=C/C[C@H](C)C[S@@](=O)(NC(=O)c2cc(Cl)n(C)c2)=NC(=O)c2ccc3c(c2)N(C[C@@H]2CC[C@H]21)C[C@@]1(CCCc2cc(Cl)ccc21)CO3 [Example 118] |  | 
25 | 0.101 | 172 | CO[C@H]1/C=C/C[C@H](C)C[S@@](=O)(NC(=O)c2cc(C)sn2)=NC(=O)c2ccc3c(c2)N(C[C@@H]2CC[C@H]21)C[C@@]1(CCCc2cc(Cl)ccc21)CO3 [Example 444] |  | 
26 | 0.1 | 3340 | CO[C@H]1/C=C/CCC[S@@](=O)(NC(=O)CCn2cncn2)=NC(=O)c2ccc3c(c2)N(C[C@@H]2CC[C@H]21)C[C@@]1(CCCc2cc(Cl)ccc21)CO3 [Example 42] |  | 
27 | 0.1 | 376 | CO[C@H]1/C=C/CCC[S@@](=O)(NC(=O)CCc2ncccn2)=NC(=O)c2ccc3c(c2)N(C[C@@H]2CC[C@H]21)C[C@@]1(CCCc2cc(Cl)ccc21)CO3 [Example 44] |  | 
28 | 0.1 | 775 | CO[C@H]1/C=C/CCC[S@@](=O)(NC(=O)CCn2cc(C)cn2)=NC(=O)c2ccc3c(c2)N(C[C@@H]2CC[C@H]21)C[C@@]1(CCCc2cc(Cl)ccc21)CO3 [Example 61] |  | 
29 | 0.068 | 64.3 | CO[C@H]1/C=C/C[C@H](C)C[S@@](=O)(NC(=O)N2CC(OC)(c3nccn3C)C2)=NC(=O)c2ccc3c(c2)N(C[C@@H]2CC[C@H]21)C[C@@]1(CCCc2cc(Cl)ccc21)CO3 [Example 276] |  | 
30 | 0.06 | 210 | CO[C@H]1CCC[C@H](C)C[S@@](=O)(NC(=O)NC2CC2)=NC(=O)c2ccc3c(c2)N(C[C@@H]2CC[C@H]21)C[C@@]1(CCCc2cc(Cl)ccc21)CO3 [Example 170] |  | 
31 | 0.053 | 73.9 | COCCOC1CCN(C(=O)N[S@@]2(=O)=NC(=O)c3ccc4c(c3)N(C[C@@H]3CC[C@H]3[C@@H](OC)/C=C/C[C@H](C)C2)C[C@@]2(CCCc3cc(Cl)ccc32)CO4)CC1 [Example 234] |  | 
32 | 0.049 | 18.5 | COC[C@H]1Cn2cc(C(=O)N[S@@]3(=O)=NC(=O)c4ccc5c(c4)N(C[C@@H]4CC[C@H]4[C@@H](O)/C=C/C[C@H](C)[C@H]3C)C[C@@]3(CCCc4cc(Cl)ccc43)CO5)cc2CO1 [Example 344] |  | 
33 | 0.047 | 73.2 | CO[C@H]1/C=C/C[C@H](C)C[S@@](=O)(NC(=O)N[C@H]2CCOC2)=NC(=O)c2ccc3c(c2)N(C[C@@H]2CC[C@H]21)C[C@@]1(CCCc2cc(Cl)ccc21)CO3 [Example 112] |  | 
34 | 0.043 | 38.6 | CO[C@H]1/C=C/C[C@H](C)C[S@@](=O)(NC(=O)C2CC(C)(O)C2)=NC(=O)c2ccc3c(c2)N(C[C@@H]2CC[C@H]21)C[C@@]1(CCCc2cc(Cl)ccc21)CO3 (some centres unmarked) [Example 140] |  | 
35 | 0.041 | 99.2 | CO[C@H]1/C=C/C[C@H](C)C[S@@](=O)(NC(=O)c2cc(CO)n(C)c2)=NC(=O)c2ccc3c(c2)N(C[C@@H]2CC[C@H]21)C[C@@]1(CCCc2cc(Cl)ccc21)CO3 [Example 185] |  | 
36 | 0.04 |  | CO[C@H]1/C=C/C[C@H](C)C[S@@](=O)(NC(=O)N[C@@H]2C[C@H]2OC)=NC(=O)c2ccc3c(c2)N(C[C@@H]2CC[C@H]21)C[C@@]1(CCCc2cc(Cl)ccc21)CO3 (single isomer, unassigned) [Example 196] | 99.2 | 
37 | 0.039 | 37.3 | COc1nn(C)cc1C(=O)N[S@@]1(=O)=NC(=O)c2ccc3c(c2)N(C[C@@H]2CC[C@H]2[C@@H](O)/C=C/C[C@H](C)C1)C[C@@]1(CCCc2cc(Cl)ccc21)CO3 [Example 223] |  | 
